The values below come from US11917993B2, “Antimicrobial compositions” (LANXESS Corporation, priority 2017, dated 2024).

Type in all cases: cell-based
The subject of experiment [1] is K. aerogenes (ATCC 13048) and P. aeruginosa (ATCC 9027). Kind of experiment: Challenge testing in tryptic soy broth at pH 9, time points from ASTM 2574. The note with it: pH 9, tryptic soy broth, up to one week. The source says: EP testing evaluates results at the 2-day, 7-day, 14-day, and 28-day marks. […] Strains of K. aerogenes (ATCC 13048) and P. aeruginosa (ATCC 9027) were utilized for this testing as they are commonly found in many products, including without limitation cosmetics and coatings. These organisms were challenged in the soy broth using the same methods described in the Challenge Testing Methodology section. The time points were selected from ASTM 2574, which is a method for evaluating antimicrobial efficacy in waterborne emulsion based paints.

Experiment [2] has as its system A. brasiliensis, C. albicans, E. coli, P. aeruginosa, S. aureus. Kind of experiment: Microbe challenge testing (USP 51 / EP) in tryptic soy broth growth media. The note with it: for effectiveness against microbe strains compared to no antimicrobial: 0.5 wt. %; for concentration achieving passing efficacy according to EP criteria / concentration achieving passing efficacy according to USP-51 criteria / efficacy versus bacteria, yeast and mold: tryptic soy broth; for efficacy versus bacteria, yeast and mold: 30 minutes to 28 days. From the text: (§1) One skilled in the art would be able to determine and utilize other industry testing methods useful to evaluate the efficacy of the present inventive compositions.
(§2) EP testing evaluates results at the 2-day, 7-day, 14-day, and 28-day marks.
(§3) For the European Pharmacopeia, a “pass” test for efficacy is a two-log reduction for bacteria after two days, three-log reduction for bacteria after […], two-log reduction for mold and yeast at 14 days and no increase at 28 days.
As such, it is an exceptional test medium and surrogate for evaluating antimicrobial efficacy, particularly for water-based or aqueous applications, although its value is not limited as such.
Product use applications involve a variety of pH conditions. […] In addition, antimicrobial compositions were added in amounts reflecting the wt. % used in an end use product, based on the total weight of all of the components of the end use product.
The efficacy of 3-phenyl propanol in tryptic soy broth growth media at pH 6.5 versus a number of microbes was evaluated according to methods described in the Challenge Testing Methodology section, above.
The efficacy of 3-phenyl propanol in tryptic soy broth growth media at pH 8.0 versus a number of microbes was evaluated according to methods described in the Challenge Testing Methodology section above.

For experiment [3] the test system is unchanged. In words: Microbe challenge testing (USP 51 / EP) in model skin lotion of Table 1.
From the text: as §1, §2, §3
Skin Lotion Formulation Experimental—An exemplary, model skin lotion having a pH of 6.5 as set forth below in Table 1 was prepared for testing. The invention is not limited to use in this specific lotion but was used to illustrate the advantages of the invention.
Use of 3-phenyl propanol in the skin lotion formulation as set forth in Table 1 above was evaluated according to methods described in the Challenge Testing Methodology section above. In this efficacy screen study reflected in FIGS. 18 and 19, only the time intervals at 2-day and 14-day were measured, as these are critical time points for USP-51 and European Pharmacopeia. In this example, a triblend or tri-component antimicrobial composition was used comprising 3-phenyl propanol added to the model skin lotion containing both sodium benzoate and benzyl alcohol to enhance the antimicrobial activity at pH 6.5, a common pH for skin lotions.
In FIG. 21 and FIG. 22, use of 3-phenyl propanol in the skin lotion set forth in Table 1 above was evaluated according to methods described in the Challenge Testing Methodology section using the microbes identified in Example 1. In this example, 3-phenyl propanol was added to the model skin lotion with sodium benzoate at 0.5 wt. % to enhance the antimicrobial activity at pH 6.5. In these examples, 0.5 wt. % of 3-phenyl propanol in addition to 0.5 wt. % sodium benzoate was required to pass the EP 2 day and 14-day criteria.
In FIG. 23 and FIG. 24, use of 3-phenyl propanol in the skin lotion set forth in Table 1 above was evaluated according to methods described in the Challenge Testing Methodology section above, using the microbes identified in Example 1. In this example, 3-phenyl propanol was added to the model skin lotion with benzyl alcohol at 0.5 wt. % to enhance the antimicrobial activity at pH 8.0. In these examples, 0.5 wt. % of 3-phenyl propanol in addition to 0.5 wt. % benzyl alcohol was required to pass the EP 2 day and 14-day criteria.
Use of sodium benzoate and benzyl alcohol at pH 6.5 in the skin lotion set forth in Table 1 above was evaluated according to methods described in paragraphs the Challenge Testing Methodology section above, using the microbes identified in Example 1. Again, in this case, only 2-day and 14-day time points were measured.

The structures appear in SMILES notation.

For the compound `OCc1ccccc1` [benzyl alcohol, reference compound], in experiment [1] (2.5 wt. %), the “antimicrobial effectiveness over time” value is on record as “unexpected antimicrobial effectiveness”.

Take `OCCCc1ccccc1` [3-phenyl propanol]: the “effectiveness against microbe strains compared to no antimicrobial” value was “demonstrated the effectiveness” in experiment [2] (pH 3, tryptic soy broth, up to 28 days) and “demonstrated the effectiveness” in experiment [2] (pH 10, tryptic soy broth). Also, the “concentration achieving passing efficacy according to EP criteria” value in experiment [2] (pH 6.5) and in experiment [2] (pH 8.0) was 1 wt. % in each case. The “concentration achieving passing efficacy according to USP-51 criteria” value in experiment [2] (pH 6.5) is recorded as 0.5 wt. %; in experiment [2] (pH 8.0), 0.25 wt. %. Also, the “efficacy versus bacteria, yeast and mold” value in experiment [2] (pH 6.5, various concentrations) was “efficacious versus bacteria, yeast and mold”; in experiment [2] (pH 8.0, various concentrations) it was “efficacious versus bacteria, yeast and mold”. Moreover, the “addition of 3-phenyl propanol meeting the two-day criteria of the European Pharmacopeia” value in experiment [3] (skin lotion pH 6.5 with 0.25 wt. % sodium benzoate and 0.25 wt. % benzyl alcohol) is 0.35 wt. %. Further, the “effect of small concentrations on performance against E. coli and S. aureus versus control (0 wt. %)” value in experiment [3] (skin lotion pH 6.5 with 0.25 wt. % sodium benzoate and 0.25 wt. % benzyl alcohol, after 14 days) is given as “significantly decreased performance”. Besides, the “loading of 3-phenyl propanol achieving the required 14-day efficacy under European Pharmacopeia criteria” value in experiment [3] (skin lotion pH 6.5 with 0.25 wt. % sodium benzoate and 0.25 wt. % benzyl alcohol, bacteria, mold and yeast) is “approximately 0.35 wt. %”. The “3-phenyl propanol required to pass the EP 2 day and 14-day criteria” value in experiment [3] (skin lotion pH 6.5 with 0.5 wt. % sodium benzoate) and in experiment [3] (skin lotion pH 8.0 with 0.5 wt. % benzyl alcohol) was 0.5 wt. % each time.

As for `CC(CO)Cc1ccccc1` (stereo not drawn) [2-methyl-3-phenyl propanol], the “antimicrobial effectiveness over time” value in experiment [1] (0.5 wt. %) is “unexpected antimicrobial effectiveness”.
